# Test results: patent publication US10913757B2, “Hydroxycinnamic derivatives, methods and uses thereof” (UNIVERSIDADE DO PORTO, priority 2016, dated 2021)
# Legend:
# [1] = Iron (II) chelating properties, ferrozine assay; assay type: biochemical; settings: 100 μM, EDTA=100%, FIG. 2
# Description: In an embodiment, AntiOxCINs iron (II) chelating properties were evaluated by the ferrozine assay using ethylenediaminetetracetic acid (EDTA) as reference.
# In an embodiment, AntiOxCINs iron chelating properties were evaluated by the spectrophotometric ferrozine method performed in a multiplate reader (Powerwave XS Microplate Reader) of Bio-Tech instruments.
# In an embodiment, the AntiOxCINs iron chelating properties were evaluated as follows: in each well, a solution of the test compound (100 μM) and ammonium iron (II) sulphate in ammonium acetate (20 μM) were added, incubated for 10 min and the absorbance was read at 562 nm. Then, a freshly prepared solution of ferrozine (5 mM) was added to each well (96 μM final concentration). After a new incubation at 37° C. for 10 min period, the absorbance of [Fe(ferrozine)3]^2+ complex was measured at 562 nm. Blank wells were run using DMSO instead of the test compounds. EDTA was used as a reference. All compounds were tested at a final concentration of 100 μM. The absorbance of the first reading was subtracted to the final values to abolish any absorbance due to the test compounds. Data are means±SEM of three independent experiments and are expressed as % of Fe(II) chelation (EDTA=100%).
# [2] = system: rat liver mitochondria (RLM) membranes; assay: RLM lipid peroxidation, TBARS assay (FeSO4/H2O2/ascorbate); assay type: biochemical; settings: 5 μM pre-incubation, FIG. 4A
# Description: In an embodiment, and as an example, AntiOxCINs antioxidant performance, on the protection of lipid peroxidation of RLM membranes was determined. Two different oxidative stressor agents, FeSO4/H2O2/ascorbate and ADP/FeSO4, and two end-points, TBARS production and oxygen-consumption, respectively, have been used. MitoQ was used as reference (FIGS. 4 and 5).
# In an embodiment, the evaluation of AntiOxCINs functional mitochondrial toxicity profile was performed in rat liver mitochondria (RLM). RLM were prepared by tissue homogenization followed by differential centrifugations in ice-cold buffer containing 250 mM sucrose, 10 mM HEPES (pH 7.4), 1 mM EGTA, and 0.1% fat-free bovine serum albumin. […] The protein concentration was determined by the biuret assay using BSA as a standard.
# In an embodiment, the effect of AntiOxCINs on RLM lipid peroxidation was measured by thiobarbituric acid reactive species (TBARS) assay as follows: RLM (2 mg protein/ml) were incubated in 0.8 mL medium containing 100 mM KCl, 10 mM Tris-HCl and pH 7.6, at 37° C., supplemented with 5 mM glutamate/2.5 mM malate as substrate. […] The fluorescence of aliquots (250 μL) of the organic layer was analyzed in a plate reader (λEx=515 nm; λEm=553 nm) for TBARS. […] Data are means±SEM of three independent experiments and are expressed as % of control (control=100%).
# [3] = system: mitochondrial permeability transition pore (mPTP) of RLM; assay: Mitochondrial permeability transition pore (mPTP) opening, mitochondrial swelling; assay type: biochemical, rat; settings: 2.5, 5 and 10 μM, pre-incubated 5 min before calcium, FIG. 7A-C
# Description: In an embodiment, the AntiOxCINs effects on mitochondrial permeability transition pore (mPTP) opening were evaluated. In general, less lipophilic AntiOxCINs had no effect on mPTP opening for all tested concentrations (FIG. 7A-C).
# In an embodiment, the evaluation of AntiOxCINs functional mitochondrial toxicity profile was performed in rat liver mitochondria (RLM). RLM were prepared by tissue homogenization followed by differential centrifugations in ice-cold buffer containing 250 mM sucrose, 10 mM HEPES (pH 7.4), 1 mM EGTA, and 0.1% fat-free bovine serum albumin. After obtaining a crude mitochondrial preparation, pellets were washed twice and resuspended in washing buffer (250 mM sucrose and 10 mM HEPES, pH 7.4). The protein concentration was determined by the biuret assay using BSA as a standard.
# In an embodiment, the effect of AntiOxCINs on mitochondrial permeability transition pore opening were measured as follows: mitochondrial swelling was estimated by measuring the alterations of light scattered from a mitochondrial suspension, as monitored spectrophotometrically at 540 nm. Increasing concentrations of AntiOxCINs (2.5-10 μM) were added to the reaction medium (200 mM sucrose, 1 mM KH2PO4, 10 mM Tris (pH 7.4), 5 mM succinate and 10 μM EGTA supplemented with 1.5 μM rotenone), in the presence of RLM (1 mg), and allowed to incubate for a 5 min period before the assay. The experiments were initiated by the addition of a suitable concentration of Ca^2+ (15-50 μM), titrated every day. […] The reaction was stirred continuously and the temperature maintained at 37° C. Data are means±SEM of three independent experiments and are expressed as Aabsorbance at 540 nm.
# [4] = system: rat liver mitochondria (RLM); assay: Mitochondrial transmembrane electric potential (ΔΨ) of RLM, safranine fluorescence; assay type: biochemical
# Description: (§1) In an embodiment, and as an example, AntiOxCINs and MitoQ toxicity effects on the mitochondrial bioenergetics, namely on RLM ΔΨ and mitochondrial respiration parameters, were measured. The […] represents the main component of the electrochemical gradient generated by mitochondrial respiration and accounts for more than 90% of the total available energy. For mitochondrial respiration assays, glutamate/malate (for complex I) and succinate (for complex II) were used as substrates. In addition, the mitochondrial oxidative phosphorylation coupling index, known as respiratory control ratio (RCR, state 3/state 4 respiration) and ADP/O index (the coupling between ATP synthesis and oxygen consumption) were also calculated. AntiOxCINs and MitoQ were tested at antioxidant-relevant concentrations, with 10 μM being the highest concentration.
# (§2) In an embodiment, the evaluation of AntiOxCINs functional mitochondrial toxicity profile was performed in rat liver mitochondria (RLM). […] The protein concentration was determined by the biuret assay using BSA as a standard.
# Then, 1 μM FCCP was added at the end of all experiments to depolarize mitochondria. ΔΨ was calculated using a calibration curve obtained when RLM were incubated in a K^+-free reaction medium containing 200 mM sucrose, 1 mM NaH2PO4, 10 mM Tris (pH 7.4) and 10 μM EGTA, supplemented with 0.4 μg valinomicin. […] “Repolarization” corresponded to the recovery of membrane potential after the complete phosphorylation of ADP added. Lag phase reflected the time required to phosphorylate the added ADP. […] Data are means±SEM of five independent experiments.
# [5] = system: rat liver mitochondria (RLM); assay: Mitochondrial respiration of isolated RLM (Clark-type oxygen electrode); assay type: biochemical
# Description: as §1, §2
# In an embodiment, the evaluation of AntiOxCINs effect on mitochondrial respiration was performed as follows: the respiration of isolated RLM was evaluated polarographically with a Clark-type oxygen electrode, connected to a suitable recorder in a 1 mL thermostated water-jacketed chamber with magnetic stirring, at 37° C.^1. […] Increasing concentrations of AntiOxCINs (2.5-10 μM) were added to the reaction medium containing respiratory substrates glutamate/malate (10 mM and 5 mM respectively) or succinate (5 mM) and RLM (1 mg) and allowed to incubate for a 5 min period prior to the assay. State 2 was considered as the respiration during the 5 min incubation time with AntiOxCINs. […] State 4 was determined after ADP phosphorylation finished. Subsequent addition of oligomycin (2 μg/ml) inhibited ATP-synthase and originated the oligomycin-inhibition respiration state. Finally, 1 μM FCCP was added to induce uncoupled respiration.
structure (smiles),measurement,setting,value
"O=C(O)CN(CCN(CC(=O)O)CC(=O)O)CC(=O)O [EDTA, ethylenediaminetetracetic acid, reference compound]",iron (II) chelation,[1],able to chelate all the iron in solution
"COC1=C(OC)C(=O)C(CCCCCCCCCC[P+](c2ccccc2)(c2ccccc2)c2ccccc2)=C(C)C1=O.CS(=O)(=O)[O-] [MitoQ, [10-(4,5-dimethoxy-2-methyl-3,6-dioxo-1,4-cyclohexadien-1-yl)decyl]triphenylphosphonium methanesulfonate, reference compound]",prevention of mitochondria lipid peroxidation (TBARS levels),[2],effectively inhibited lipid peroxidation
same,effect on calcium-dependent mPTP opening,[3],no effect in mPTP induction
same,iron (II) chelation,[1],not shared by MitoQ
same,repolarization after ADP-induced depolarization,[4]; 10 μM,no repolarization occurred
same,ADP-induced depolarization (ΔΨ in - mV),"[4]; glutamate/malate, 2.5 μM",173.0 ± 9.3 mV
same,Lag Phase,"[4]; glutamate/malate, 2.5 μM",86.5 ± 5.6 s
same,Maximum potential (ΔΨ in - mV),"[4]; glutamate/malate, 2.5 μM",195.7 ± 10.8 mV
same,Repolarization Potential (ΔΨ in - mV),"[4]; glutamate/malate, 2.5 μM",191.1 ± 11.7 mV
same,ADP-induced depolarization (ΔΨ in - mV),"[4]; glutamate/malate, 5 μM",173.5 ± 8.9^ mV
same,Lag Phase,"[4]; glutamate/malate, 5 μM",84.5 ± 7.1 s
same,Maximum potential (ΔΨ in - mV),"[4]; glutamate/malate, 5 μM",188.3 ± 10.6 mV
same,Repolarization Potential (ΔΨ in - mV),"[4]; glutamate/malate, 5 μM",185.0 ± 9.4 mV
same,Maximum potential (ΔΨ in - mV),"[4]; glutamate/malate, 10 μM",113.9 ± 10.2 mV
same,ADP-induced depolarization (ΔΨ in - mV),"[4]; succinate, 2.5 μM",162.1 ± 6.0 mV
same,Lag Phase,"[4]; succinate, 2.5 μM",104.8 ± 9.9 s
same,Maximum potential (ΔΨ in - mV),"[4]; succinate, 2.5 μM",181.6 ± 8.3 mV
same,Repolarization Potential (ΔΨ in - mV),"[4]; succinate, 2.5 μM",182.7 ± 9.1 mV
same,ADP-induced depolarization (ΔΨ in - mV),"[4]; succinate, 5 μM",157.0 ± 6.4^ mV
same,Lag Phase,"[4]; succinate, 5 μM",92.6 ± 19.4 s
same,Maximum potential (ΔΨ in - mV),"[4]; succinate, 5 μM",170.2 ± 8.1 mV
same,Repolarization Potential (ΔΨ in - mV),"[4]; succinate, 5 μM",170.8 ± 8.7 mV
same,Maximum potential (ΔΨ in - mV),"[4]; succinate, 10 μM",108.9 ± 3.8 mV
same,toxicity on the mitochondrial bioenergetic apparatus of RLM,"[5]; 2.5 μM, FIG. 6A and Table 2",caused toxicity
same,effect on respiratory states,"[5]; concentrations up to 5 μM, glutamate/malate, FIG. 6A","increase on state 2, state 4 and oligomycin-inhibited respiration and a decrease on state 3 and FCCP-uncoupled respiration"
same,ADP/O,"[5]; glutamate/malate, 2.5 μM",2.2 ± 0.1
same,"RCR (respiratory control ratio, state 3/state 4)","[5]; glutamate/malate, 2.5 μM",4.2 ± 0.6
same,ADP/O,"[5]; glutamate/malate, 5 μM",1.9 ± 0.1
same,"RCR (respiratory control ratio, state 3/state 4)","[5]; glutamate/malate, 5 μM",2.7 ± 0.3
same,ADP/O,"[5]; glutamate/malate, 10 μM",2.0 ± 0.2
same,"RCR (respiratory control ratio, state 3/state 4)","[5]; glutamate/malate, 10 μM",1.3 ± 0.1
same,coupling of RLM,"[5]; succinate, highest concentration tested, FIG. 6A",completely uncoupled
same,ADP/O,"[5]; succinate, 2.5 μM",1.3 ± 0.1
same,"RCR (respiratory control ratio, state 3/state 4)","[5]; succinate, 2.5 μM",2.6 ± 0.2
same,ADP/O,"[5]; succinate, 5 μM",1.3 ± 0.1
same,"RCR (respiratory control ratio, state 3/state 4)","[5]; succinate, 5 μM",2.4 ± 0.2
